According to patent EP0007294A2, “Membrane stabilizing compounds having beta-receptor blocking activity, their preparation, method for treatment of arrhythmic conditions, and pharmaceutical preparations containing same” (priority 1978, dated 1980):
Read-outs that look alike come from different tables or passages of the source.

Columns and labels:
[1] = Alternative chloroform test on mice: ventricular tachycardia inhibition and ataxia; format: in vivo; details: mouse, in vivo
Experimental: (§1) In an alternative chloroform test on mice the ventricular tachycardia inhibition by the test compounds are observed. Thereby the test solution is given subcutaneous and the animal is observed for CNS-effects for 20 min. The mouse is put into a chamber with chloroform until it stops breathing (approx 30 sec.). The animal is then secured on a cork-board and ECG is monitored. If the ventricular rythm is less than 520 beats per min., the animal was protected against ventricular tachycardia. Groups of 10 animals were tested for each dose-level'and the ED50-values have been calculated therefrom. During the test the side-effect ataxia (incordination of movements) is observed.
(§2) In Table 5, as shown, the new compounds tested exerted antiarrhythmic effects also in this te-st.

[2] = system: chloroform induced ventricular tachy-cardia; assay: as above; format: in vivo; details: Mus musculus; sc.; mice, chloroform; groups of 10 animals per dose-level
Experimental: as §1, §2

[3] = Conscious dogs with ligation of a coronary artery according to Harris: ectopics and convulsions; format: in vivo; details: in vivo
Text: (§3) Male beagle dogs, 7-13 kg, undergo two days prior to the test a surgical ligation of a coronary artery. On the day of the test the conscious dog is secured in a canvas sling in a standing position and given increasing doses of the test compounds by intravenous administration. ECG, blood pressure etc are monitored and attention is paid to all CNS-effects. The dogs have almost 100 percent of ectopics prior to administration of the compound to be tested. Effects of the test drug on the frequency of ectopics are calculated from ECG. The accumulative end doses giving 50% and 90% reduction of ectopics as well as the ED50 values which give convulsions (side-effect) are measured and given below in Table 3. The value for convulsions is a mean value for 3-5 dogs.
(§4) x) The value given is the final value in a series of doses 0.5 + 1 + 2 + 4 + 8 mg/kg i.v. giving 50% reduction of ectopics. 30 min interval between doses.
(§5) Table 3: Antiarrythmic effect and CNS-effects of four β-receptor blockers, a membrane stabilizer, and ten new compounds with combined β-blocking and membrane stabilizing effect.

ectopics = assay: as above; format: in vivo; details: Canis lupus familiaris, iv.; for ED50: accumulative end dose giving 50% reduction of ectopics, read-out: Conscious dog Harris ligation Ectopics -50%; for ED90: accumulative end dose giving 90% reduction of ectopics, read-out: Conscious dog Harris ligation Ectopics -90%
Text: as §3, §4, §5

[4] = system: ouabain-induced arrhythmias; assay: Ouabain-induced arrhythmias in anesthetized guinea-pigs; format: in vivo; details: for A-A EFFECT IN NUMBER OF ANIMALS: animals with antiarrhythmic effect / animals tested; for LOWEST FREQUENCY: frequency of ventricular premature beats after test solution; for ASYSTOLE: time of asystole under continued ouabain; for V-FIB: time of ventricular fibrillation under continued ouabain
Experimental: Guinea-pigs of either.sex (300-400 g) were anesthetized with urethane 1,4 g/kg i.p. and tracheotomized. ECG, lead II was picked up with needle electrodes and was registered continuously throughout the experiment. Two i.v. catheters were inserted: one for the administration of ouabain, the other for the test solution.
The experimental design for the study of antiarrhythmic activities is schematically shown in the head of Table 2. The arrhythmia was induced by automatic infusion of ouabain, 18 µg/kg/60" every two minutes for twelve minutes and thereafter 9 µg/kg/30" every two minutes throughout the whole experiment and the infusion was not stopped until asystole occurred. As soon as the frequency of ventricular premature beats (VPB) had passed 50 per cent, the test solution was given i.v. (0,2 ml/min) during 2 min. (see head of Table 2).

[5] = system: chloroform-induced ventricular arrhythmias; assay: Chloroform-induced ventricular arrhythmias (fibrillation) in mice, intraperitoneal dose; details: for Number of Animals Protected: protected against CHCl3-induced ventricular fibrillation
Text: Mice were given an intraperitoneal dose of the test compound. Twenty minutes after dose, they were suffocated in chloroform vapor.- When the animals stopped breathing, the chest was opened to inspect for fibrillation. If the heart was not fibrillating, it was prodded.
Signs of CNS toxicity were noted during the 20-minute interval between dosing and challenge.
"Protected" means number of animals protected against CHC13- induced ventricular fibrillation.

[6] = dose 100 mg/kg intraperitoneal, 10 treated
[7] = sc., mice, observed for 20 min, read-out: Ataxia ED50
[8] = iv., conscious dog, mean value for 3-5 dogs, read-out: ED50 Convulsive

Row | Structure (SMILES) | TD50 at 20 min ([1]; sc) [mg/kg] | ED50 [2] [mg/kg] | TD50 ([3]; dog, iv) [mg/kg] | ED50 (ectopics) [mg/kg] | ED90 (ectopics) [mg/kg] | A-A EFFECT IN NUMBER OF ANIMALS ([4]; dose 0.1 mg/kg i.v.) | A-A EFFECT IN NUMBER OF ANIMALS ([4]; dose 0.3 mg/kg i.v.) | LOWEST FREQUENCY ([4]; dose 0.1 mg/kg i.v.) [%] | LOWEST FREQUENCY ([4]; dose 0.3 mg/kg i.v.) [%] | ASYSTOLE ([4]; dose 0.1 mg/kg i.v.) [min] | ASYSTOLE ([4]; dose 0.3 mg/kg i.v.) [min] | V-FIB ([4]; dose 0.1 mg/kg i.v.) [min] | V-FIB ([4]; dose 0.3 mg/kg i.v.) [min] | TD50 at 20 min [1, 7] [mg/kg] | TD50 [3, 8] [mg/kg] | further results
1 | COCCc1ccc(OCC(O)CNC(C)C)cc1 (centres unmarked) [Metoprolol] | > 50 | 2.6 | > 8 | 4 | 8 | 6/6 | 6/6 | 16±7 | 1±1 | 38 ± 5 | 48 ± 6 | 32 ± 5 | 37 ± 3 | – | – | A-A EFFECT IN NUMBER OF ANIMALS ([4]; dose 0.03 mg/kg i.v.): 6/6; LOWEST FREQUENCY ([4]; dose 0.03 mg/kg i.v.): 34±5%; ASYSTOLE ([4]; dose 0.03 mg/kg i.v.): 35 ± 4 min; V-FIB ([4]; dose 0.03 mg/kg i.v.): 25 ± 3 min
2 | COCCc1ccc(OCC(O)CNCCc2ccc(O)cc2)cc1 (centres unmarked) [Ex. 2] | > 13 | 3 | 8 | 4 | 8 | 7/7 | 6/6 | 25±7 | 5±2 | 27 ± 3 | 35 ± 3 | 20 ± 2 | 29 ± 2 | – | – | Number of Animals Dead [5, 6]: 0; Number of Animals Protected [5, 6]: 8; Number of Animals Convulsive ([5]; mouse, in vivo, ip, 100 mg/kg): 0; Number of Animals LRR ([5]; mouse, in vivo, ip, 100 mg/kg): 0
3 | CC(C)NC[C@@H](O)COc1cccc2ccccc12 [D-Propranolol] | – | ~8 | – | 1 | 4 | – | 6/8 | – | 36±5 | – | 22 ± 1 | – | 14 ± 1 | ~30 | 8 | A-A EFFECT IN NUMBER OF ANIMALS ([4]; dose 1.0 mg/kg i.v.): 6/6; LOWEST FREQUENCY ([4]; dose 1.0 mg/kg i.v.): 5±3%; ASYSTOLE ([4]; dose 1.0 mg/kg i.v.): 29 ± 1 min; V-FIB ([4]; dose 1.0 mg/kg i.v.): 23 ± 2 min
4 | CC(=O)Nc1ccc(OCC(O)CNC(C)C)cc1 (centres unmarked) [Practolol, reference compound] | – | 2 | – | > 16 | > 16 | – | – | – | – | – | – | – | – | > 50 | > 16 | –
5 | COCCc1ccc(OCC(O)CNCCCCc2ccc(OC)c(OC)c2)cc1 (centres unmarked) [Ex. 15] | > 6.3 | 1.2 | 6 | 1 | 4 | – | – | – | – | – | – | – | – | – | – | –
6 | CC(C)NCC(O)COc1cccc2ccccc12 (centres unmarked) [Propranolol] | – | 0.6 | – | 1 | 3 | 6/7 | 6/6 | 9±5 | 4±2 | 35 ± 4 | 32 ± 5 | 30 ± 5 | 27 ± 6 | > 1 | 8 | Number of Animals Dead [5, 6]: 0; Number of Animals Convulsive ([5]; dose 100 mg/kg intraperitoneal, 10 treated, convulsions within 20 minutes after dosing): 10; Number of Animals LRR ([5]; dose 100 mg/kg intraperitoneal, 10 treated, loss of righting reflex): 1; Number of Animals Protected [5, 6]: 10; A-A EFFECT IN NUMBER OF ANIMALS ([4]; dose 0.03 mg/kg i.v.): 6/7; LOWEST FREQUENCY ([4]; dose 0.03 mg/kg i.v.): 29±5%; ASYSTOLE ([4]; dose 0.03 mg/kg i.v.): 29 ± 2 min; V-FIB ([4]; dose 0.03 mg/kg i.v.): 21 ± 3 min
7 | COCc1ccc(OCC(O)CNCc2ccccc2)cc1 (centres unmarked) [Ex. 6, 3-phenylmethylamino-1-[4-methoxymgthylphenoxy]-propanol-2] | ~70 | ~200 | 14 | 8 | > 16 | – | – | – | – | – | – | – | – | – | – | –
